In patent US6121241A, “Anticoagulant peptide aldehyde derivatives” (Gyogyszerkutato Intezet Kft., priority 1996, dated 2000):
pIC50: −log10 of the molar value. Where two headings read alike, the source gives them in different places.

Legend:
[1] = target: T1, plasma clot entrapped thrombin (Homo sapiens, UniProt P00734); assay: Inhibition of thrombin entrapped in plasma clot (methods M1, M3); format: biochemical; conditions: platelet-rich human plasma clot; Tos-Gly-Pro-Arg-pNA substrate
T1 construct: Here prothrombin is converted to thrombin; from tissue; host or cells: clot of recalcified platelet-rich human citrate plasma
Experimental: (§1) The plasma clot was obtained by the recalcification of platelet-rich human citrate plasma and fibrin gel by the coagulation of human fibrinogen with human thrombin Z-D-Arg-Gly-Arg-pNA and Tos Gly-Pro-Arg-pNA were used as substrates for measuring the activity of factor Xa and thrombin (methods M1-M5).
Preparation of Plasma Clot
a) Platelet-rich plasma (PRP) is prepared by centrifuging a 9:1 mixture of human blood and 3.8% aqueous sodium citrate solution (1/2) for 5 minutes at 240×g.
b) 200 μL of PRP are placed in each reaction vessel, 80 μL of 40 mM calcium chloride solution is added and the mixture is left to stand at room temperature for one hour. The plasma clot formed is rinsed mildly with 6×2 ml of 0.9% sodium chloride solution followed by 5 minute sedimentation to remove the dissolved enzymes (factor Xa and thrombin). The thrombin content of the washings is assayed as follows.
c) To 400 μL of washing liquid 100 μL of 1 mM Tos-Gly-Pro-Arg-pNA substrate solution is added and the mixture is incubated for 30 minutes at 37° C., then the reaction is stopped by the addition of 100 μL of 50% acetic acid. 150 μL portions of this mixture are transferred into the wells of the 96-well microtiter plate and the extinction is measured at 405 nm (ELISA READER SLT Laborinstrument GmbH, Austria). When the washing is successful, the extinction is less than 5% of the control
Assay of the Inhibition of Thrombin Entrapped in Plasma Clot
a) Peptide inhibitor solutions are prepared by the process described in Method M2, point a).
b) After draining the washing liquid, 400 μL of the peptide solution (3 parallel samples for each concentration) and 400 μL of buffer, serving as control, are placed on the clot (Method M1) and the mixture is incubated for 5 minutes at 37° C. Thereafter 100 μL of […] Tos-Gly-Pro-Arg-pNA substrate solution is added and incubation at 37° C. is continued for further 30 minutes, then the reaction is stopped by the addition of 100 μL of 50% acetic acid. The operation is continued as described in Method M2, point c).

[2] = target: T2, fibrin-gel bound thrombin (Homo sapiens, UniProt P00734); assay: Inhibition of thrombin bound to fibrin-gel (methods M4, M5); format: biochemical; conditions: Tos-Gly-Pro-Arg-pNA substrate
T2 construct: Here prothrombin is converted to thrombin; purchased SIGMA
Experimental: as §1
Preparation of Fibrin-Gel
a) 200 μL of 6 mg/mL human fibrinogen (SIGMA), 25 μL of 25 NIH U/mL human thrombin (SIGMA) and 40 μL of 100 mM calcium chloride solution are placed in each reaction vessel and the mixtures are stored for one hour at 20-22° C. The fibrin formed is rinsed mildly with 3×2 ml of isotonic saline solution followed by sedimentation to remove the thrombin content of the solution. The efficacy of rinsing is controlled by the process described in Method M1, point c).
Assay of the Inhibition of Thrombin Bound to Fibrin-Gel
a) 0.1-1.0-10 and 100 μg/ml solutions are prepared with Hepes/NaCl buffer (0.01 M Hepes and 0.1 M sodium chloride, pH=7.4).
b) Thereafter the procedure described in Method M3, point b) is followed.

[3] = target: plasmin (PL) (Homo sapiens, UniProt P00747); assay: Fibrin-plate method, plasmin; format: biochemical; conditions: for pIC50: fibrin-plate method, hydrolyzed area reduced by 50%
Chain of plasmin (PL) (P00747 581-810 limits assumed, species assumed): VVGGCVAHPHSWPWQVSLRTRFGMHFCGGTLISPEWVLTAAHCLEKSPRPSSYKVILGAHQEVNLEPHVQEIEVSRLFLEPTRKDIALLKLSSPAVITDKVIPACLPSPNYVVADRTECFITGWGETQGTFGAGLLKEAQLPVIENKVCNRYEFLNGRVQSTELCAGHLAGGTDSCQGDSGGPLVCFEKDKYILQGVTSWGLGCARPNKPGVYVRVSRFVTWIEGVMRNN
Chain of plasmin (PL) (P00747 97-580 partner limits assumed, species assumed): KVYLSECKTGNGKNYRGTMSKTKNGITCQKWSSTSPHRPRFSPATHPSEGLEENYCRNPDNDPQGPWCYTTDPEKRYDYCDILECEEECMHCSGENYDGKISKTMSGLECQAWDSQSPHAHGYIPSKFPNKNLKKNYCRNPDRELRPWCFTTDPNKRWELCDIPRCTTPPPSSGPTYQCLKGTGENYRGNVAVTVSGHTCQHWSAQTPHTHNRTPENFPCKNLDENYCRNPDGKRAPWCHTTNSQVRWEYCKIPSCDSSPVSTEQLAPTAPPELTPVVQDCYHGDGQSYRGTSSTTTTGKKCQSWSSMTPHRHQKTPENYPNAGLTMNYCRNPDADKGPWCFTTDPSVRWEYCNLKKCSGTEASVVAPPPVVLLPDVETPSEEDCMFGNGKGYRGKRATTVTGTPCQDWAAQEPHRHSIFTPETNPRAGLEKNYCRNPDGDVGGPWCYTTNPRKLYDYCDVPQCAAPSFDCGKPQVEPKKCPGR
From the text: (§2) The inhibitory effect of the new compounds of the invention on plasmin (PL) as well as on plasmin formation induced by tissue plasminagen activator (tPA) and urokinase (UK) was studied by the […] [D. Bagdy et al.; Thromb. Haemost. 67, 325 (1992)]. Compounds C1 and C3 served as controls. […] V. Jackson et al., J. Cardiovasc. Pharmacol. 21, 587 (1993)].
(§3) ^a IC50 = peptide concentration (mM) where the hydrolyzed area o
(§4) the fibrin plate is reduced by 50% compared to the control

[4] = target: tissue plasminogen activator (tPA) (Homo sapiens, UniProt P00750); assay: Fibrin-plate method, plasmin formation induced by tPA; format: biochemical; conditions: for pIC50: fibrin-plate method, hydrolyzed area reduced by 50%
Chain of tissue plasminogen activator (tPA) (P00750 36-562, species assumed): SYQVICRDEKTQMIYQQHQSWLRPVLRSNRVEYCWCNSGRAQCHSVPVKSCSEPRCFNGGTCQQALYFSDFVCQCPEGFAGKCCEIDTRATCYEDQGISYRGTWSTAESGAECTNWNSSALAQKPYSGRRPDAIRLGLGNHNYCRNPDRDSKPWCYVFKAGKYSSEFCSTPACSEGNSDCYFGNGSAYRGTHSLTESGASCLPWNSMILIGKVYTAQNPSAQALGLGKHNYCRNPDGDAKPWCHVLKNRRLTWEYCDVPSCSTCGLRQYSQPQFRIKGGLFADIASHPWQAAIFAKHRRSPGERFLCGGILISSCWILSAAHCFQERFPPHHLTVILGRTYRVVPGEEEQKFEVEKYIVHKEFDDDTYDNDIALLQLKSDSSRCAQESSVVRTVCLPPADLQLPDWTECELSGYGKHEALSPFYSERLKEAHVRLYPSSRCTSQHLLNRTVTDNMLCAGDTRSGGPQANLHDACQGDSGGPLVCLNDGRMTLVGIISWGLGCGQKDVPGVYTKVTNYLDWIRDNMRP
From the text: as §2, §3, §4

[5] = target: urokinase (UK) (Homo sapiens, UniProt P00749); assay: Fibrin-plate method, plasmin formation induced by urokinase; format: biochemical; conditions: for pIC50: fibrin-plate method, hydrolyzed area reduced by 50%
From the text: as §2, §3, §4

[6] = test system: activated partial thromboplastin time (APTT); assay: Ex vivo APTT in citrate plasma of rabbits after p.o. dosing; set-up: species or system New Zealand white rabbits; conditions: p.o. 5 mg/kg
Experimental: (§5) The anticoagulant and platelet aggregation inhibiting effect of the compounds of general formula (I) was studied In New Zealand white rabbits ex vivo according to D. Bagdy et al [Thromb. Haemost 67. 357 (1992). The compounds were dissolved in buffered isotonic saline solution and administered i.v. (0,04-5.0 mg/kg) or by infusion (0.25-5.0 mg/kg/h) or subcutaneously (0.5-6.0 mg/kg) or p.o. (2.5-20 mg/kg). The effect of the compounds was detectable already within 30 minutes following p.o. administration, peak values were attained after 60-180 minutes and the therapeutic level was maintained dose-dependently for 3→6 hours.
(§6) The in vivo effect of D-cHga Pro-Arg-H (1) is presented in detail in Tables 5 and 6. The corresponding values of C1 are listed as controls. The compound was administered p.o. in doses of 5 mg/kg. The blood samples drawn from the caudal vein in every 30-60 minutes were analyzed. The whole blood clotting time (WBCT) and the inhibition of thrombin-induced blood platelet aggregation (PAI) were determined. The activated partial thromboplastin time (APTT) and the thrombin time (TT) in the citrate plasma obtained from the blood sample were also measured. The APTT and TT values are compiled in Table 5 and the WBCT and PAI values in Table 6.

[7] = test system: thrombin-induced blood platelet aggregation; assay: Ex vivo inhibition of thrombin-induced blood platelet aggregation (PAI) in rabbits after p.o. dosing; set-up: species or system New Zealand white rabbits; conditions: p.o. 5 mg/kg
Experimental: as §5, §6

[8] = related to the activity of C1 (1/IC50 = 1)

Row | Compound | pIC50 [1] | pIC50 [2] | pIC50 [3] | pIC50 [4] | pIC50 [5] | APTT relative clotting time ([6]; 0 min) | APTT relative clotting time ([6]; 30 min) | APTT relative clotting time ([6]; 45 min) | APTT relative clotting time ([6]; 60 min) | APTT relative clotting time ([6]; 90 min) | APTT relative clotting time ([6]; 120 min) | APTT relative clotting time ([6]; 180 min) | APTT relative clotting time ([6]; 240 min) | APTT relative clotting time ([6]; 300 min) | PAI(%) ([7]; 0 min) | PAI(%) ([7]; 30 min) | PAI(%) ([7]; 45 min) | PAI(%) ([7]; 60 min) | PAI(%) ([7]; 90 min) | PAI(%) ([7]; 120 min) | further results
1 | N=C(N)NCCC[C@@H](C=O)NC(=O)[C@H]1CCCN1C(=O)C(O)C1CCCCCC1.N=C(N)NCCC[C@@H](C=O)NC(=O)[C@H]1CCCN1C(=O)C(O)C1CCCCCC1.O=S(=O)(O)O (stereo partly drawn) [Compound 1, D-2-Cycloheptyl-2-hydroxyacetyl-L-prolyl-L-arginine aldehyde hemisulfate] | 6.28 | 6.68 | 4.08 | 4.13 | 3.92 | 1.0 | 2.01 ± 0.43 | 2.25 ± 0.43 | 2.32 ± 0.43 | 2.11 ± 0.31 | 1.84 ± 0.11 | 1.66 ± 0.10 | 1.37 ± 0.08 | 1.31 ± 0.09 | 0% | 71.0 ± 19.4% | 74.0 ± 13.9% | 91.0 ± 4.5% | 93.0 ± 3.5% | 92.4 ± 6.5% | B: relative efficacy, PL [3]: 0.6; times lower activity than compound C3, first enzyme (PL) ([3]; versus C3 of Table 4): 7.5; B: relative efficacy, tPA [4]: 1.8; times lower activity than compound C3, second enzyme (tPA) ([4]; versus C3 of Table 4): 12; B: relative efficacy, UK [5]: 0.7; times lower activity than compound C3, third enzyme (UK) ([5]; versus C3 of Table 4): 39; PAI(%) ([7]; 180 min): 71.6 ± 19.8%; PAI(%) ([7]; 240 min): 49.4 ± 21.5%
2 | CN[C@H](Cc1ccccc1)C(=O)N1CCC[C@H]1C(=O)N[C@H](C=O)CCCNC(=N)N [Compound C1, D-MePhe-Pro-Arg-H] | 6.42 | 6.52 | 4.27 | 3.88 | 4.09 | 1.0 | 1.27 ± 0.38 | 1.30 ± 0.02 | 1.37 ± 0.03 | 1.45 ± 0.09 | 1.43 ± 0.11 | 1.39 ± 0.09 | 1.31 ± 0.11 | 1.25 ± 0.22 | 0% | 52.8 ± 14.7% | 58.4 ± 15.6% | 54.2 ± 11.6% | 83.2 ± 8.9% | 75.2 ± 12.3% | B: relative efficacy, PL [3, 8]: 1.0; B: relative efficacy, tPA [4, 8]: 1.0; B: relative efficacy, UK [5, 8]: 1.0; PAI(%) ([7]; 180 min): 47.5 ± 20.9%; PAI(%) ([7]; 240 min): 32.2 ± 16.0%
